One experiment relates to Hck-pY410. Description: PhosFlow. The class given is cell-based. Particulars: BCWM.1, Hck-wt and Hck-mu BCWM.1 cells; 0.5 μM and 0.1 μM.
In a further experiment the test system is BTK. The class given is biochemical. The source says:
(§1) The in vitro activity of the compounds described herein in inhibiting TAK1, HCK and other kinases were obtained using an Invitrogen Select Screening assay as known in the art. The IC50 values determined from this assay are shown below.

For the next experiment, the system named is FYN. Nature of the experiment: KiNativ kinase profiling in A375 cells. The experiment is classed as cell-based. The following applies: 1 μM; A375 cells.
Another experiment deals with LYN. The class given is cell-based.
The next experiment has as its system ZAK. The class given is cell-based.
The test system of the next experiment is TMD8. Nature of the experiment: CellTiter-Glo cell viability assay. Particulars: Homo sapiens, 72 hours. The experiment is classed as cell-based. How it is done: (§2) CellTiter-Glo® Luminescent cell viability assay (Promega) was used to assess cell survival following treatment with the compounds described. Cells were seeded into 384 well plates with the EL406 Combination Washer Dispenser (BioTek Instruments, Inc.) and the compounds were injected into the cells culture media with the JANUS Automated Workstation (PerkinElmer Inc.). Cells were treated with a series diluted inhibitors (20˜0.04 μM) for 72 hours at 37° C. Luminescent measurement is performed using the 2104 Envision® Multilabel Reader (PerkinElmer Inc.).

A further experiment relates to BCWM.1. Description: CellTiter-Glo cell viability assay. The experiment is classed as cell-based. The method, then:
as §2

Another experiment concerns OCI-Ly7. Nature of the experiment: CellTiter-Glo cell viability assay. The class given is cell-based. Particulars: Homo sapiens, 72 hours. How it is done: as §2
A further experiment has as its system OCI-Ly3. Description: CellTiter-Glo cell viability assay. The experiment is classed as cell-based. Particulars: Homo sapiens, OCI-Ly3, 72 h. How it is done:
as §2

In the next experiment the test system is Abl. Nature of the experiment: KiNativ kinase profiling in A375 cells. The experiment is classed as cell-based. Particulars: 1 μM; A375 cells.
A further experiment relates to BTK-pY223. Nature of the experiment: PhosFlow. The experiment is classed as cell-based. Particulars: BCWM.1, Hck-wt and Hck-mu BCWM.1 cells; 0.5 μM and 0.1 μM. The method, then:
PhosFlow was performed to detect levels of phosphorylation for BTK-pY223 (BD Biosciences) and Hck-pY410 (Abcam) in BCWM.1 cells, in BCWM cells that stably overexpress HCK (BCWM.1_HCK-wt) and in BCWM.1 cells that stably overexpress the T338M mutant of HCK (BCWM.1_HCK-mu). Cells were fixed with BD Phosflow Fix Buffer I (BD Biosciences) at 37° C. for 10 min, then washed twice with BD Phosflow Perm/Wash Buffer I (BD Biosciences). Cells were suspended in BD Phosflow Perm/Wash Buffer I at 10 million/ml and antibodies aliquoted to flow tubes with 100 μl cells. Cells were incubated at room temperature for 30 min in the dark. Cells were washed twice with BD Phosflow Perm/Wash Buffer I before performing flow analysis using a BD™ FACSCanto II flow cytometer.

Experiment [1] deals with WM patient primary lymphoplasmacytic cells (LPCs). Nature of the experiment: Apoptosis analysis (Annexin V/Propidium iodide). The class given is cell-based. The following applies: for Apoptosis (%): 24 hours. How it is done:
WM cells were treated with and without the compounds described herein. Cells were incubated at 37° C. with 0.01˜4 uM of the compounds described herein. Apoptosis analysis was performed using Annexin V/Propidium iodide staining with the Apoptosis Detection Kit I (BD Pharmingen). 1×10^6/well cells were treated in 24 well plates for ˜24 hours with inhibitors or corresponding controls. A minimum of 10,000 events were acquired using a BD™ FACSCanto II flow cytometer and analyzed with BD FACS DIVA Software.
Apoptosis analysis of WM patient primary lymphoplasmacytic cells (LPCs) was preformed following A-5 and A-14 treatment of Bone marrow mononuclear cells (BMMC) from WM patients for 24 hours. Apoptosis analysis was performed using Annexin V/Propidium iodide staining with the Apoptosis Detection Kit I (BD Pharmingen) in CD19-APC-cy7 antibody (BD Pharmingen) gated LPCs population.

Experiment [2] is described as follows: Isobolograms, synergy with a BTK inhibitor. The following applies: FIG. 1. The source says:
Points below the 1 to 1 line connecting the X and Y axes are ‘synergistic’, points near the line are ‘additive’, and points above it are antagonistic.

The next experiment concerns OCI-Ly19. Nature of the experiment: CellTiter-Glo cell viability assay. Particulars: Homo sapiens, OCI-LY19, 72 h. The class given is cell-based. The method, then: as §2
Another experiment concerns MWCL-1. Description: CellTiter-Glo cell viability assay. The experiment is classed as cell-based. Particulars: 72 h. The method, then:
as §2

A further experiment has as its system Ramos. Nature of the experiment: CellTiter-Glo cell viability assay. The class given is cell-based. The following applies: Homo sapiens, 72 h. The method, then: as §2
A further experiment has as its system TAK1. The class given is biochemical.
For a further experiment, the system named is HCK. The experiment is classed as biochemical. The following applies: read-out: HCK IC50 (nM) Inv.
Description: as §1

The values that follow come from patent publication US10633348B2, “Methods to treat lymphoplasmacytic lymphoma” (Dana-Farber Cancer Institute, Inc., priority 2013, dated 2020).

As for `CCN1CCN(Cc2ccc(NC(=O)c3ccc(C)c(Oc4cc(Nc5cnn(C)c5)ncn4)c3)cc2C(F)(F)F)CC1` [(A-5), N-(4-((4-ethylpiperazin-1-yl)methyl)-3-(trifluoromethyl)phenyl)-4-methyl-3-((6-((1-methyl-1H-pyrazol-4-yl)amino)pyrimidin-4-yl)oxy)benzamide], the “Hck phosphorylation” value in the experiment on Hck-pY410 is reported as “inhibit”. For the same compound, the half-inhibitory concentration (IC50) with BTK was over 10000 nM. The FYN inhibition in the experiment on FYN turned out to be 71.2%. In the experiment with LYN, this compound gave an LYN inhibition of 87.8%. The same compound returned a ZAK inhibition in the experiment with ZAK of 75.7%. The concentration giving a half-maximal response (EC50) in the experiment with TMD8 was found to be 132 nM; with BCWM.1 (72 hours), 72 nM; in the experiment on BCWM.1 (BCWM1, 72 h) it was 51 nM; with OCI-Ly7 it was 655 nM; with OCI-Ly3, 4710 nM. The compound also registered an Abl inhibition in the experiment on Abl of over 90%. Moreover, in the experiment with BTK-pY223, the “BTK phosphorylation” value is “inhibit”. In addition, the “Apoptosis (%)” value in experiment [1] (Patient 1, 1.0 μM) came out at 57.7%; in [1] (Patient 2, 1.0 μM), 28.9%; in [1] (Patient 3, 1.0 μM), 29.48%; in experiment [1] (Patient 4, 1.0 μM) it was 48.56%; in [1] (Patient 5, 0.5 μM) it was 23.25%; in experiment [1] (Patient 5, 1.0 μM), 30.5%. In addition, the “Apoptosis (%)” value is given as 17.82% in experiment [1] (Patient 6, 1.0 μM); 17.23% in [1] (Patient 7, 0.5 μM); 18.2% in experiment [1] (Patient 7, 1.0 μM); 11.04% in [1] (Patient 8, 0.5 μM); 17.31% in [1] (Patient 8, 1.0 μM); 21.5% in [1] (Patient 10, 0.2 μM). Further, the “Apoptosis (%)” value in [1] (Patient 10, 1.0 μM) was 28.7%; in [1] (Patient 11, 0.2 μM), 30.2%; in experiment [1] (Patient 11, 1.0 μM), 47%. Besides, in experiment [1] (WM patient primary LPCs), the “apoptosis compared with DMSO control” value was “induced significant apoptosis”.
In the experiment on BTK, `C=CC(=O)Nc1cc(Oc2cc(C(=O)Nc3ccc(CN4CCN(CC)CC4)c(C(F)(F)F)c3)ccc2C)ncn1` [(A-17), 3-((6-acrylamidopyrimidin-4-yl)oxy)-N-(4-((4-ethylpiperazin-1-yl)methyl)-3-(trifluoromethyl)phenyl)-4-methylbenzamide] registered an IC50 of 3380 nM. Further, the “synergy between compound and a BTK inhibitor (isobolograms)” value in experiment [2] is recorded as “synergy”. Also, the EC50 in the experiment on BCWM.1 (BCWM1, 72 h) amounted to 8 nM; in the experiment with OCI-Ly3, 247 nM; with OCI-Ly19, 188 nM; in the experiment on MWCL-1, 202 nM; in the experiment on Ramos, 389 nM.
Regarding `CCN1CCN(Cc2ccc(NC(=O)c3ccc(C)c(Oc4cc(Nc5cncnc5)ncn4)c3)cc2C(F)(F)F)CC1` [(A-8), N-(4-((4-ethylpiperazin-1-yl)methyl)-3-(trifluoromethyl)phenyl)-4-methyl-3-((6-(pyrimidin-5-ylamino)pyrimidin-4-yl)oxy)benzamide], the results for the IC50 in the experiment with TAK1 and in the experiment on HCK were 487 nM and 889 nM, respectively.
